Assay results reported in ChEMBL document CHEMBL1126545, “Metabolism and biological activity of 1,25(OH)2D2 and its metabolites in a chronic myelogenous leukemia cell line, rwleu-4” (Bioorg Med Chem Lett, 1993).

Experiments:
RWLeu4 [1] = assay: Concentration required to decrease [3H]thymidine incorporation by 50 percent in RWLeu4 CML cell line as compared to untreated cells was determined; type: functional, cell-based; settings: Homo sapiens
RWLeu4 [2] = assay: Change in cell surface marker (CD4) along monocyte-macrophage pathway on RWLeu-4 cells; value represents the percentage of total cells positive for CD4 marker; type: functional, Homo sapiens
RWLeu4 [3] = assay: Change in cell surface marker (CD11b) along monocyte-macrophage pathway on RWLeu-4 cells; value represents the percentage of total cells positive for CD11b marker; type: functional, Homo sapiens

| Structure (SMILES) | IC50 (RWLeu4 [1]) [nM] | Cells positive (RWLeu4 [2]) [%] | Cells positive (RWLeu4 [3]) [%] |
| --- | --- | --- | --- |
| C=C1/C(=C\C=C2/CCC[C@@]3(C)C2CC[C@@H]3[C@H](C)/C=C/C(C)(O)C(C)(C)O)C[C@@H](O)C[C@@H]1O (stereo partly specified) | 11 | – | – |
| C=C1/C(=C\C=C2/CCC[C@]3(C)[C@@H]([C@H](C)/C=C/C(CO)C(C)(C)O)CC[C@@H]23)C[C@@H](O)C[C@@H]1O (stereo partly specified) | 96 | – | – |
| C=C1/C(=C\C=C2/CCC[C@]3(C)[C@@H]([C@H](C)/C=C/C(C)C(C)(C)O)CC[C@@H]23)C[C@@H](O)C[C@@H]1O (stereo partly specified) | 13 | 15 | 88 |
| C=C1/C(=C\C=C2/CCC[C@]3(C)[C@@H]([C@H](C)CC[C@@H](O)C(C)(C)O)CC[C@@H]23)C[C@@H](O)C[C@@H]1O | 11 | – | – |
| C=C1/C(=C\C=C2/CCC[C@]3(C)[C@@H]([C@H](C)/C=C/C(O)(CO)C(C)(C)O)CC[C@@H]23)C[C@@H](O)C[C@@H]1O (stereo partly specified) | > 100 | – | – |
| C=C1/C(=C\C=C2/CCC[C@@]3(C)C2CC[C@@H]3[C@H](C)/C=C/C(C)(O)C(C)(O)CO)C[C@@H](O)C[C@@H]1O (stereo partly specified) | 11 | – | – |
| C=C1/C(=C\C=C2/CCC[C@@]3(C)C2CC[C@@H]3[C@H](C)/C=C/C(C)C(C)(O)CO)C[C@@H](O)C[C@@H]1O (stereo partly specified) | 8 | 21 | 89 |
